Tests used:
Assay type in all cases: biochemical
[1] = target: T1, porcine pancreatic elastase (PPE) (Sus scrofa, UniProt P00772); assay: Specificity assay, porcine pancreatic elastase; settings: 2 h enzyme-inhibitor pre-incubation; read-out: PPE activity in the specificity assays (IC50)
T1 construct: purchased Sigma
Experimental: (§1) The specificities of compounds of the present disclosure were determined against a variety of serine proteases: human neutrophil elastase (HNE), porcine pancreatic elastase (PPE) and human pancreatic chymotrypsin and one cysteine protease: human liver cathepsin B. In all cases a 96-well plate format protocol using calorimetric p-nitroaniline (pNA) substrate specific for each enzyme was used as described previously (PCT Patent Application No. WO 00/09543) with some modifications to the serine protease assays. All enzymes were purchased from Sigma while the substrates were from Bachem.
(§2) Each assay included a 2 h enzyme-inhibitor pre-incubation at room temperature followed by addition of substrate and hydrolysis to 30% conversion as measured on a Spectramax Pro microplate reader. Compound concentrations varied from 100 to 0.4 μM depending on their potency. […]
(§3) The percentage of inhibition was calculated using the formula: [1−((UVinh−UVblank)/(UVctl−UVblank))]×100 […]

[2] = tested on: T2, human pancreatic chymotrypsin; assay: Specificity assay, chymotrypsin; settings: 2 h enzyme-inhibitor pre-incubation; read-out: Chymotrypsin activity in the specificity assays (IC50)
T2 construct: "human pancreatic chymotrypsin"
Experimental: as §1, §2, §3

human liver cathepsin B = target: T3, human liver cathepsin B (Homo sapiens, UniProt P07858); assay: Specificity assay, cathepsin B; settings: 2 h enzyme-inhibitor pre-incubation; read-out: Cathepsin B activity in the specificity assays (IC50)
T3 construct: purchased Sigma; host or cells: human liver
Experimental: as §1, §2, §3

T1 sequence (P00772 27-266): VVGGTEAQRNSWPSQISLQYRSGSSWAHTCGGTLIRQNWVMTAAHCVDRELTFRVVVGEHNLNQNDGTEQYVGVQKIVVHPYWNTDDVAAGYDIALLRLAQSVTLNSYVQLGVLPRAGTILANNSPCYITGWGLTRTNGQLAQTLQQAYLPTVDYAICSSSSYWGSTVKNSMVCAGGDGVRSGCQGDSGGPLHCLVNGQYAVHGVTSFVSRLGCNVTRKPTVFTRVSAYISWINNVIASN

For `C=C[C@@H]1C[C@]1(NC(=O)[C@@H]1C[C@@](O)(c2ccc(-c3ccccc3)cc2)CN1C(=O)[C@@H](NC(=O)OC(C)(C)C)C(C)(C)C)C(=O)NS(=O)(=O)C1CC1` [Compound 3], the IC50 [1] was > 100 µM, the IC50 [2] was > 100 µM and the IC50 (human liver cathepsin B) was 2 µM.

Reference: patent US7592336B2, “Hepatitis C virus inhibitors” (Bristol-Myers Squibb Company, priority 2005, dated 2009)
